# According to ChEMBL document CHEMBL4765347, “Radiomodulatory effect of a non-electrophilic NQO1 inducer identified in a screen of new 6, 8-diiodoquinazolin-4(3H)-ones carrying a sulfonamide moiety” (Eur J Med Chem, 2020):
# Key:
# Details in all cases: filed as activator, time 50.0 min
# [1] = biological target: Nuclear factor erythroid 2-related factor 2 (Mus musculus) (UniProt Q60795); assay: Activation of Nrf2 in mouse Hepa1c1c7 cells assessed as increase in NQO1 activity at 6.25 uM using menadione as substrate incubated for 20 mins followed by substrate addition and measured after 30 mins by spectrophotometry relative to control
# Chain of Nuclear factor erythroid 2-related factor 2 (Mus musculus) (Q60795 whole entry, looked up): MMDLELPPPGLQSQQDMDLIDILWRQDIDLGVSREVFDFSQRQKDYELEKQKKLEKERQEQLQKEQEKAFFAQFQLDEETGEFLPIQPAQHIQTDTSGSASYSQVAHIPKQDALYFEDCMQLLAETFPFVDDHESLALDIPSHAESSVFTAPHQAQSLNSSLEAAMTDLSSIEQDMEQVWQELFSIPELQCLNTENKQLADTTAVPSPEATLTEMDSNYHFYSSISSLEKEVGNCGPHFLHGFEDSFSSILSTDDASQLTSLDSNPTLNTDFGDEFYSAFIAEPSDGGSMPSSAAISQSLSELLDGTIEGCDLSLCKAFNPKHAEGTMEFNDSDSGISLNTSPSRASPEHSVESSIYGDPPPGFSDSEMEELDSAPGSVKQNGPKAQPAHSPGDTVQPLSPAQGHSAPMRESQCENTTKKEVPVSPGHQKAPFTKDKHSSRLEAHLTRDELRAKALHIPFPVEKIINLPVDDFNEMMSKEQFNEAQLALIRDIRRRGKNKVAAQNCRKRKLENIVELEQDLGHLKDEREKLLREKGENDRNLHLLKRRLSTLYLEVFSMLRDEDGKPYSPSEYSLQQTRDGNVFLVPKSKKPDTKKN
# Nrf2 (Mus musculus) [2] = assay: Activation of Nrf2 in mouse Hepa1c1c7 cells assessed as increase in NQO1 activity at 3.125 uM using menadione as substrate incubated for 20 mins followed by substrate addition and measured after 30 mins by spectrophotometry relative to control
# [3] = biological target: Nuclear factor erythroid 2-related factor 2 (Mus musculus) (UniProt Q60795); assay: Activation of Nrf2 in mouse Hepa1c1c7 cells assessed as increase in NQO1 activity at 25 uM using menadione as substrate incubated for 20 mins followed by substrate addition and measured after 30 mins by spectrophotometry relative to control
# Nrf2 (Mus musculus) [4] = assay: Activation of Nrf2 in mouse Hepa1c1c7 cells assessed as increase in NQO1 activity at 0.4 uM using menadione as substrate incubated for 20 mins followed by substrate addition and measured after 30 mins by spectrophotometry relative to control
# [5] = biological target: Nuclear factor erythroid 2-related factor 2 (Mus musculus) (UniProt Q60795); assay: Activation of Nrf2 in mouse Hepa1c1c7 cells assessed as increase in NQO1 activity at 50 uM using menadione as substrate incubated for 20 mins followed by substrate addition and measured after 30 mins by spectrophotometry relative to control
# Nrf2 (Mus musculus) [6] = assay: Activation of Nrf2 in mouse Hepa1c1c7 cells assessed as increase in NQO1 activity at 1.6 uM using menadione as substrate incubated for 20 mins followed by substrate addition and measured after 30 mins by spectrophotometry relative to control
# [7] = biological target: Nuclear factor erythroid 2-related factor 2 (Mus musculus) (UniProt Q60795); assay: Activation of Nrf2 in mouse Hepa1c1c7 cells assessed as increase in NQO1 activity at 12.5 uM using menadione as substrate incubated for 20 mins followed by substrate addition and measured after 30 mins by spectrophotometry relative to control
# Nrf2 (Mus musculus) [8] = assay: Activation of Nrf2 in mouse Hepa1c1c7 cells assessed as increase in NQO1 activity at 0.8 uM using menadione as substrate incubated for 20 mins followed by substrate addition and measured after 30 mins by spectrophotometry relative to control
# Nrf2 (Mus musculus) [9] = assay: Activation of Nrf2 in mouse Hepa1c1c7 cells assessed as increase in NQO1 activity at 5 uM using menadione as substrate incubated for 20 mins followed by substrate addition and measured after 30 mins by spectrophotometry relative to control
# Nrf2 (Mus musculus) [10] = assay: Activation of Nrf2 in mouse Hepa1c1c7 cells assessed as increase in NQO1 activity at 0.313 uM using menadione as substrate incubated for 20 mins followed by substrate addition and measured after 30 mins by spectrophotometry relative to control
# Nrf2 (Mus musculus) [11] = assay: Activation of Nrf2 in mouse Hepa1c1c7 cells assessed as increase in NQO1 activity at 10 uM using menadione as substrate incubated for 20 mins followed by substrate addition and measured after 30 mins by spectrophotometry relative to control
# [12] = biological target: Nuclear factor erythroid 2-related factor 2 (Mus musculus) (UniProt Q60795); assay: Activation of Nrf2 in mouse Hepa1c1c7 cells assessed as increase in NQO1 activity at 40 uM using menadione as substrate incubated for 20 mins followed by substrate addition and measured after 30 mins by spectrophotometry relative to control
# Nrf2 (Mus musculus) [13] = assay: Activation of Nrf2 in mouse Hepa1c1c7 cells assessed as increase in NQO1 activity at 1.25 uM using menadione as substrate incubated for 20 mins followed by substrate addition and measured after 30 mins by spectrophotometry relative to control
# Nrf2 (Mus musculus) [14] = assay: Activation of Nrf2 in mouse Hepa1c1c7 cells assessed as increase in NQO1 activity at 0.625 uM using menadione as substrate incubated for 20 mins followed by substrate addition and measured after 30 mins by spectrophotometry relative to control
# Nrf2 (Mus musculus) [15] = assay: Activation of Nrf2 in mouse Hepa1c1c7 cells assessed as increase in NQO1 activity at 20 uM using menadione as substrate incubated for 20 mins followed by substrate addition and measured after 30 mins by spectrophotometry relative to control
# Nrf2 (Mus musculus) [16] = assay: Activation of Nrf2 in mouse Hepa1c1c7 cells assessed as increase in NQO1 activity at 2.5 uM using menadione as substrate incubated for 20 mins followed by substrate addition and measured after 30 mins by spectrophotometry relative to control
# Nrf2 (Mus musculus) [17] = assay: Activation of Nrf2 in mouse Hepa1c1c7 cells assessed as increase in NQO1 activity using menadione as substrate incubated for 20 mins followed by substrate addition and measured after 30 mins by spectrophotometry
T/C [1],T/C (Nrf2 (Mus musculus) [2]),T/C [3],T/C (Nrf2 (Mus musculus) [4]),T/C [5],T/C (Nrf2 (Mus musculus) [6]),T/C [7],T/C (Nrf2 (Mus musculus) [8]),T/C (Nrf2 (Mus musculus) [9]),T/C (Nrf2 (Mus musculus) [10]),T/C (Nrf2 (Mus musculus) [11]),T/C [12],T/C (Nrf2 (Mus musculus) [13]),T/C (Nrf2 (Mus musculus) [14]),T/C (Nrf2 (Mus musculus) [15]),T/C (Nrf2 (Mus musculus) [16]),Activity (Nrf2 (Mus musculus) [17]),CD (Nrf2 (Mus musculus) [17]) [µM],Compound
0.99,0.97,1.08,1.01,1.13,0.99,1,0.99,–,–,–,–,–,–,–,–,–,–,Cc1ccc(NC(=O)CSc2nc3c(I)cc(I)cc3c(=O)n2-c2ccc(S(N)(=O)=O)cc2)cc1
1.13,1.06,1.31,1.04,1.43,1.04,1.27,1.04,–,–,–,–,–,–,–,–,–,–,Cc1ccccc1NC(=O)CSc1nc2c(I)cc(I)cc2c(=O)n1-c1ccc(S(N)(=O)=O)cc1
1.11,1.06,1.26,1.03,1.47,1.03,1.18,1,–,–,–,–,–,–,–,–,–,–,NS(=O)(=O)c1ccc(-n2c(SCC(=O)Nc3ccccc3)nc3c(I)cc(I)cc3c2=O)cc1
–,–,–,–,–,–,–,–,1.04,1.03,1.09,1.3,1.05,1.02,1.15,1.04,–,–,CCc1cccc(NC(=O)CSc2nc3c(I)cc(I)cc3c(=O)n2-c2ccc(S(N)(=O)=O)cc2)c1
1.06,1.05,1.27,1.05,1.48,1.04,1.14,1.01,–,–,–,–,–,–,–,–,–,–,Cc1cccc(NC(=O)CSc2nc3c(I)cc(I)cc3c(=O)n2-c2ccc(S(N)(=O)=O)cc2)c1

# The next lines start with the molecule.
Compound,T/C [1],T/C (Nrf2 (Mus musculus) [2]),T/C [3],T/C (Nrf2 (Mus musculus) [4]),T/C [5],T/C (Nrf2 (Mus musculus) [6]),T/C [7],T/C (Nrf2 (Mus musculus) [8]),T/C (Nrf2 (Mus musculus) [9]),T/C (Nrf2 (Mus musculus) [10]),T/C (Nrf2 (Mus musculus) [11]),T/C [12],T/C (Nrf2 (Mus musculus) [13]),T/C (Nrf2 (Mus musculus) [14]),T/C (Nrf2 (Mus musculus) [15]),T/C (Nrf2 (Mus musculus) [16]),Activity (Nrf2 (Mus musculus) [17]),CD (Nrf2 (Mus musculus) [17]) [µM]
NS(=O)(=O)c1ccc(-n2c(SCC(=O)Nc3ccc([N+](=O)[O-])cc3[N+](=O)[O-])nc3c(I)cc(I)cc3c2=O)cc1,–,–,–,–,–,–,–,–,1.08,1.01,1.2,1.68,1.03,1.04,1.36,1.04,–,–
NS(=O)(=O)c1ccc(-n2c(S)nc3c(I)cc(I)cc3c2=O)cc1,1.02,1.01,1.05,1.01,–,1.06,1.06,1.04,–,–,–,–,–,–,–,–,–,–
CCOc1ccc(NC(=O)CSc2nc3c(I)cc(I)cc3c(=O)n2-c2ccc(S(N)(=O)=O)cc2)cc1,–,–,–,–,–,–,–,–,1,1.01,0.99,1.16,0.99,1.02,1.09,1.02,–,–
COc1cc(NC(=O)CSc2nc3c(I)cc(I)cc3c(=O)n2-c2ccc(S(N)(=O)=O)cc2)cc(OC)c1,1.22,1.06,1.73,1,1.81,1.02,1.52,1.01,–,–,–,–,–,–,–,–,–,–
CCc1ccc(NC(=O)CSc2nc3c(I)cc(I)cc3c(=O)n2-c2ccc(S(N)(=O)=O)cc2)cc1,0.99,0.97,1.03,0.98,1.14,0.98,1.01,0.99,–,–,–,–,–,–,–,–,–,–
COc1ccc(NC(=O)CSc2nc3c(I)cc(I)cc3c(=O)n2-c2ccc(S(N)(=O)=O)cc2)cc1,0.99,0.98,1.18,1.01,1.29,1,1.08,1.02,–,–,–,–,–,–,–,–,–,–
Cc1cccc([N+](=O)[O-])c1NC(=O)CSc1nc2c(I)cc(I)cc2c(=O)n1-c1ccc(S(N)(=O)=O)cc1,0.91,0.83,1.34,0.95,1.94,0.89,1.05,0.93,–,–,–,–,–,–,–,–,Dose-dependent effect,50
Cc1cc([N+](=O)[O-])ccc1NC(=O)CSc1nc2c(I)cc(I)cc2c(=O)n1-c1ccc(S(N)(=O)=O)cc1,–,–,–,–,–,–,–,–,1.06,1.01,1.28,–,0.99,1.01,1.53,1,–,–
CCc1ccccc1NC(=O)CSc1nc2c(I)cc(I)cc2c(=O)n1-c1ccc(S(N)(=O)=O)cc1,–,–,–,–,–,–,–,–,1.01,0.99,1.01,1.05,0.99,0.97,1.01,0.97,–,–
